Laboratory results published in patent publication US5780505A, “Substituted N-arylmethylamino derivatives of cyclobutene-3, 4-diones” (American Home Products Corporation, priority 1997, dated 1998).

System: Isolated Rat Bladder Strips
Assay: Inhibition of contractions in isolated rat bladder strips (KCl-enhanced contractile activity; smooth muscle relaxation)
Assay type: cell-based, Sprague-Dawley rats
Details: for IC50 / percent contraction at 30 µM: 0.5 h; for IC50: isolated rat bladder strips, 15 mM additional KCl, 30 minute challenge, read-out: IC50 (50% inhibition of pre-drug contractile activity); for inhibition at 30 µM / percent contraction at 30 µM: Rattus norvegicus; for inhibition at 30 µM: read-out: Percent inhibition at 30 μM (I); for percent contraction at 30 µM: read-out: Percent contraction at 30 μM (C)
Text: The smooth muscle relaxing activity of the compounds of this invention was established in accordance with standard pharmaceutically accepted test procedures with representative compounds as follows:
Sprague-Dawley rats (150-200 g) are rendered unconscious by CO2 asphyxiation and then euthanized by cervical dislocation. The bladder is removed into warm (37 deg.C) physiological salt solution (PSS) of the following composition (mM): NaCl, 118.4; KCl, 4.7; CaCl2, 2.5; MgSO4, 4.7; H2 O, 1,2; NaHCO3, 24.9; KH2 PO4, 1,2; glucose, 11.1; EDTA, 0.023; gassed with […]; pH 7.4. The bladder is opened and then dut into strips 1-2 mm in width and 7-10 mm in length. The strips are subsequently suspended in a 10 mL tissue bath under an initial resting tension of 1.5 g. The strips are held in place by two surgical clips one of which is attached to a fixed hook while the other is attached to an isometric force transducer. […] The carbachol is then washed out and the tissue allowed to relax to its resting level of activity. Following a further 30 min period of recovery an additional 15 mM KCl are introduced into the tissue bath. This increase in KCl concentration results in a large increase in the amplitude of spontaneous contractions (and initiation of contractions in previously quiescent strips) superimposed upon a small increase in basal tone. Following stabilization of this enhanced level of contractile activity, incremental increases in the concentration of test compound or vehicle are introduced into the tissue bath. Contractile activity is measured for each compound or vehicle concentration during the last minute of a 30 minute challenge.
The isometric force developed by the bladder strips is measured using a […] to elicit 50% inhibition of pre-drug contractile activity (IC50 concentration) and is calculated from this concentration-response curve.

Row | IC50 [nM] | Structure (SMILES) | inhibition at 30 µM [%] | percent contraction at 30 µM [%]
1 | 1500 ± 1000 | CCC(C)(C)Nc1c(NCc2ccc(F)cc2Cl)c(=O)c1=O [Example 63, 3-(2-Chloro-4-fluoro-benzylamino)-4-(1,1-dimethyl-propylamino)-cyclobut-3-ene-1,2-dione] |  | 
2 | 8100 ± 2000 | CC(C)(CO)Nc1c(NCc2ccc(C#N)cc2Cl)c(=O)c1=O [Example 93, 3-Chloro-4-{[2-(2-hydroxy-1,1-dimethyl-ethylamino)-3,4-dioxo-cyclobut-1-enylamino]-methyl}-benzonitrile] | 44 | 
3 | 2360 ± 1600 | CCCC(=O)N(Cc1ccc(C#N)cc1Cl)c1c(NC(C)(C)C)c(=O)c1=O [Example 101] |  | 
4 |  | Cc1cccc(Cl)c1CNc1c(N[C@H](C)C(C)(C)C)c(=O)c1=O [Example 29, 3-(2-Chloro-6-methyl-benzylamino)-4-(1,2,2-trimethyl-propylamino)-cyclobut-3-ene-1,2-dione] | 38.6 ± 3.6 | 
5 | 980 ± 400 | C[C@@H](Nc1c(NCc2cc(F)ccc2F)c(=O)c1=O)C(C)(C)C [Example 66, 3-(2.5-Difluoro-benzylamino)-4-(1,2,2-trimethyl-propylamino)-cyclobut-3-ene-1,2-dione] |  | 
6 | 1910 ± 840 | CCC(C)(C)Nc1c(NCc2cc(C)ccc2C)c(=O)c1=O [Example 94, 3-(2,5-Dimethyl-benzylamino)-4-(1,1-dimethyl-propylamino)-cyclobut-3-ene-1,2-dione] |  | 
7 | 1900 ± 1100 | Cc1cc(C#N)cc(Cl)c1CNc1c(N[C@H](C)C(C)(C)C)c(=O)c1=O [Example 34, 3-Chloro-4-{[3,4-dioxo-2-(1,2,2-trimethyl-propylamino)-cyclobut-1-enylamino]-methyl}-5-methyl-benzonitrile] |  | 
8 |  | Cc1cc(C)c(CNc2c(NCC(F)(F)C(F)(F)F)c(=O)c2=O)c(Cl)c1 [Example 41, 3-(2-Chloro-4,6-dimethyl-benzylamino)-4-(2,2,3,3,3-pentafluoro-propylamino)-cyclobut-3-ene-1,2-dione] | 41 ± 2.9 | 
9 | 4900 ± 2700 | CC(C)(C)Nc1c(NCc2cc(C(F)(F)F)ccc2F)c(=O)c1=O [Example 64, 3-tert-Butylamino-4-(2-fluoro-5-trifluoromethyl-benzylamino)-cyclobut-3-ene-1,2-dione] |  | 
10 |  | COc1cccc(C)c1CNc1c(N[C@H](C)C(C)(C)C)c(=O)c1=O [Example 57, 3-(2-Methoxy-6-methyl-benzylamino)-4-(1,2,2-trimethyl-propylamino)-cyclobut-3-ene-1,2-dione] | 29.3 ± 2.3 | 160
11 | 5300 ± 1200 | CC(C)(C)Nc1c(NCc2ccc(F)c(Cl)c2)c(=O)c1=O [Example 67, 3-tert-Butylamino-4-(3-chloro-4-fluoro-benzylamino)-cyclobut-3-ene-1,2-dione] | 47.7 | 
12 | 860 ± 270 | CCC(C)(C)Nc1c(NCc2cc(C)cc(C#N)c2)c(=O)c1=O [Example 7, 3-([2-(1,1-Dimethyl-propylamino)-3,4-dioxo-cyclobut-1-enylamino]-methyl)-5-methyl-benzonitrile] |  | 
13 | 11100 ± 400 | COc1cc(OC)c(CNc2c(NC(C)(C)C)c(=O)c2=O)c(OC)c1 [Example 15, 3-tert-Butylamino-4-(2,4,6-trimethoxy-benzylamino)-cyclobut-3-ene-1,2-dione] |  | 
14 | 2300 ± 850 | CC(C)(C)Nc1c(NCc2cc(Cl)cc(Cl)c2)c(=O)c1=O [Example 89, 3-tert-Butylamino-4-(3.5-dichloro-benzylamino)-cyclobut-3-ene-1,2-dione] |  | 
15 | 1000 ± 600 | CCc1cc(Br)ccc1CNc1c(NC(C)(C)CC)c(=O)c1=O [Example 49, 3-(4-Bromo-2-ethyl-benzylamino)-4-(1,1-dimethyl-propylamino)-cyclobut-3-ene-1,2-dione] |  | 
16 | 5600 | Cc1cccc(C)c1CNc1c(N[C@H](C)C(C)(C)C)c(=O)c1=O [Example 51, 3-(2,6-Dimethyl-benzylamino)-4-(1,2,2-trimethyl-propylamino)-cyclobut-3-ene-1,2-dione] | 44 | 22 ± 3.2
17 | 280 ± 30 | CCC(C)(C)Nc1c(NCc2c(Cl)cccc2Cl)c(=O)c1=O [Example 4, 3-(2,6-Dichloro-benzylamino)-4-(1,1-dimethyl-propylamino)-cyclobut-3-ene-1,2-dione] |  | 
18 | 4350 ± 4100 | CCC(C)(C)Nc1c(NCc2c(C)cccc2Cl)c(=O)c1=O [Example 32, 3-(2-chloro-6-methyl-benzylamino)-4-(1,1-dimethyl-propylamino)-cyclobut-3-ene-1,2-dione] |  | 
19 | 1400 ± 400 | CC(C)(C)Nc1c(NCc2ccc(F)cc2Cl)c(=O)c1=O [Example 60, 3-tert-Butylamino-4-(2-chloro-4-fluoro-benzylamino)-cyclobut-3-ene-1,2-dione] |  | 
20 | 2000 ± 200 | CCc1cc(C#N)ccc1CNc1c(N[C@H](C)C(C)(C)C)c(=O)c1=O [Example 28, 4-{[3,4-Dioxo-2-(1,2,2-trimethyl-propylamino)-cyclobut-1-enylamino]-methyl}-3-ethyl-benzonitrile] |  | 
21 | 2300 ± 240 | CCc1cccc(C)c1CNc1c(NC(C)(C)C)c(=O)c1=O [Example 58, 3-tert-Butylamino-4-(2-ethyl-6-methyl-benzylamino)-cyclobut-3-ene-1,2-dione] | 25 | 
22 | 850 ± 410 | C[C@@H](Nc1c(NCc2cc(F)ccc2Cl)c(=O)c1=O)C(C)(C)C [Example 65, 3-(2-Chloro-5-fluoro-benzylamino)-4-(1,2,2-trimethyl-propylamino)-cyclobut-3-ene-1,2-dione] |  | 
23 | 6600 ± 1600 | Cc1cc(C#N)cc(CNc2c(NC(C)C(C)(C)C)c(=O)c2=O)c1 (centres unmarked) [Example 12, 3-{[3,4-Dioxo-2-(1,2,2-trimethyl-propylamino)-cyclobut-1-enylamino]-methyl}-5-methyl-benzonitrile] | 37 ± 0.7 | 
24 | 23500 ± 8100 | CC(C)(C)Nc1c(NCc2cc(C(F)(F)F)cc(C(F)(F)F)c2)c(=O)c1=O [Example 73, 3-(3.5-Bis-trifluoromethyl-benzylamino)-4-tert-butylamino-cyclobut-3-ene-1,2-dione] | 35.8 ± 4.9 | 
25 | 1300 ± 300 | Cc1c(Cl)cccc1CNc1c(NC(C)(C)C)c(=O)c1=O [Example 96, 3-tert-Butylamino-4-(3-chloro-2-methyl-benzylamino)-cyclobut-3-ene-1,2-dione] |  | 
26 | 20300 ± 790 | CC(=O)N(Cc1ccc(C#N)cc1Cl)c1c(NC(C)(C)C)c(=O)c1=O [Example 98, N-(2-tert-Butylamino-3,4-dioxo-cyclobut-1-enyl)-N-(2-chloro-4-cyano-benzyl)-acetamide] |  | 
27 |  | CCC(CC)Nc1c(NCc2cc(C)cc(C#N)c2)c(=O)c1=O [Example 13, 3-{[2-(1-Ethyl-propylamino)-3,4-dioxo-cyclobut-1-enylamino]-methyl}-5-methyl-benzonitrile] | 19.1 ± 1.7 | 
28 | 5200 ± 600 | CCc1cc(C#N)ccc1CNc1c(NC(CC)CC)c(=O)c1=O [Example 26] |  | 
29 | 1600 ± 180 | Cc1ccc(CNc2c(NC(C)(C)C)c(=O)c2=O)cc1C [Example 84, 3-tert-Butylamino-4-(3,4-dimethyl-benzylamino)-cyclobut-3-ene-1,2-dione] |  | 
30 | 1200 ± 1100 | CCC(C)(C)Nc1c(NCc2c(C)cc(Br)cc2C)c(=O)c1=O [Example 37, 3-(4-Bromo-2,6-dimethyl-benzylamino)-4-(1,1-dimethyl-propylamino)-cyclobut-3-ene-1,2-dione] |  | 
